Data taken from article PMC3608651, “A Broad Profile of Co-Dominant Epitopes Shapes the Peripheral Mycobacterium tuberculosis Specific CD8+ T-Cell Immune Response in South African Patients with Active Tuberculosis” (PLoS ONE, 2013).
Like-named read-outs stand apart in the source and are kept apart here. Marks after values point to notes of the source that are not given here.

Tests used:
[1] = biological target: T1, HLA-A*30:02 (Homo sapiens, UniProt P04439, D101N/D140H/D185E/E176R/F33S/G80R/H175R/K168Q/Q94H/R138E/R41S/V100E); conditions: cited from earlier work
[2] = biological target: T1, HLA-A*30:02; conditions: cited from earlier work; remark: listed apart in the source
[3] = biological target: T1, HLA-A*30:02; conditions: percent relative the binding of a positive control peptide, cited from earlier work
[4] = biological target: T2, HLA-B*58:01 (Homo sapiens, UniProt P01889, A329T/C349S/D201E/D98Y/E176V/E187L/E204Q/E69T/G107R/I218V/I90N/K202T/L105A/L119I/N104I/N87E/Q89R/Q94S/R106L/R155S/R180L/R86G/S101N/S121R/S35A/S48A/T118I/V127L/V306I/V36M/Y140S/Y91M); type: binding; conditions: percent relative the binding of positive control peptide […]; duplicated experiments; positive binder >40%
[5] = biological target: T2, HLA-B*58:01; type: binding
[6] = biological target: T3, HLA-A*02:01 (Homo sapiens, UniProt P04439, D140Y/D185E/D98H/E176V/E277Q/G131W/G231S/I119V/I121R/I166T/I218V/L300P/L318F/N151K/N90K/P208A/P217A/Q86G/Q94H/R138H/R169H/T345S); conditions: cited from earlier work
[7] = biological target: T2, HLA-B*58:01; type: binding; conditions: time points 0-8 h
[8] = biological target: T3, HLA-A*02:01; conditions: percent relative the binding of a positive control peptide, cited from earlier work
[9] = biological target: HLA-A*30:01 (Homo sapiens, UniProt P04439, D140H/D185E/E176W/F33S/G80R/H175R/K168Q/R138E/R41S); type: binding; conditions: percent relative the binding of positive control peptide […]; duplicated experiments; positive binder >40%
[10] = biological target: T3, HLA-A*02:01; type: binding
[11] = biological target: T1, HLA-A*30:02; type: binding
[12] = biological target: T3, HLA-A*02:01; type: binding; remark: listed apart in the source
[13] = biological target: T4, HLA-A*68:01 (Homo sapiens, UniProt P04439, A269V/D185E/E176V/E277Q/E87N/F33Y/G231S/I121M/I166T/I218V/L180W/L300P/L318F/N151K/P208A/P217A/Q86R/R169H/T345S); type: binding; conditions: percent relative the binding of positive control peptide […]; duplicated experiments; positive binder >40%
[14] = biological target: T1, HLA-A*30:02; type: binding; conditions: percent relative the binding of positive control peptide […]; duplicated experiments; positive binder >40%
[15] = biological target: T1, HLA-A*30:02; type: binding; conditions: time points 0-8 h
[16] = biological target: T3, HLA-A*02:01; type: binding; remark: listed apart in the source
[17] = biological target: HLA-B*07:02 (Homo sapiens, UniProt P01889); type: binding
[18] = biological target: T5, HLA-C*07:01 (Homo sapiens, UniProt P10321, K90N/S123Y); assay: off-rate assay (t1/2); type: binding; conditions: time points 0-8 h
[19] = biological target: T6, HLA-A*24:02 (Homo sapiens, UniProt P04439, D101N/D140Y/D185E/E176V/E190D/F33S/G103R/G107R/I119L/I121M/I306V/K335N/L105A/L180Q/L300P/N151K/N90K/Q86E/Q94H/R106L/R138H/R89G/T104I/T345S/V100E/W191G/Y123F); type: binding
[20] = biological target: T5, HLA-C*07:01; assay: affinity assay (ED50); type: binding
[21] = biological target: T5, HLA-C*07:01; type: binding; conditions: percent relative the binding of positive control peptide […]; duplicated experiments; positive binder >40%
[22] = biological target: T6, HLA-A*24:02; type: binding; remark: listed apart in the source
[23] = biological target: T6, HLA-A*24:02; type: binding; remark: listed apart in the source
[24] = biological target: T3, HLA-A*02:01; conditions: cited from earlier work; remark: listed apart in the source
[25] = biological target: T4, HLA-A*68:01; type: binding; conditions: time points 0-8 h
[26] = biological target: T4, HLA-A*68:01; type: binding

Sequence: GHAGDMAGY [Rv0288_13–21wt]
- O-rate A*30:02 (t1/2) ([1]; wild-type epitopes marked **): 1.3 h
- Aff A*30:02 (ED50) ([2]; wild-type epitopes marked **): 0.04 µM
- Bind A*30:02 ([3]; wild-type epitopes marked **): 71** percent

Sequence: QSLGAEIAV [Rv0288_26–34wt]
- Bind B*58:01 [4]: 30%
- Aff B*58:01 (ED50) [5]: 200 µM
- Aff A*02:01 (ED50) [6]: 2e-06 M
- O-rate B*58:01 (t1/2) [7]: 6 min
- Bind A*02:01 ([8]; […]): 48* percent

Sequence: YQSGLSIVM
- Bind A*30:01 [9]: 27%
- O-rate A*02:01 (t1/2) [10]: 3.1 h
- Aff A*30:02 (ED50) [11]: 8E -07 M
- Bind B*58:01 [4]: 0%
- Bind A*02:01 [12]: 142
- Bind A*68:01 [13]: 7%
- Bind A*30:02 [14]: 123%
- O-rate A*30:02 (t1/2) [15]: 0.4 h
- Aff A*02:01 (ED50) [16]: 0.05 µM
- Bind B*07:02 [17]: 2
- O-rate C*07:01 (t1/2) [18]: 0.3 h
- Aff A*24:02 (ED50) [19]: 0.5 µM
- Aff C*07:01 (ED50) [20]: 7E -09 M
- Bind C*07:01 [21]: 68%
- O-rate A*24:02 (t1/2) [22]: 1.5 h
- Bind A*24:02 [23]: 59

Sequence: SLGAEIAVE [Rv0288_27–35wt]
- O-rate A*02:01 (t1/2) ([24]; wild-type epitopes marked *): 1.8 h
- Aff A*02:01 (ED50) ([6]; wild-type epitopes marked *): 1e-05 M
- Bind A*02:01 ([8]; wild-type epitopes marked *): 28* percent

Sequence: AYHAMSSTH [Rv0288_68–76wt]
- O-rate A*30:02 (t1/2) ([1]; wild-type epitopes marked **): 1.2 h
- Aff A*30:02 (ED50) ([2]; wild-type epitopes marked **): 0.3 µM
- Bind A*30:02 ([3]; wild-type epitopes marked **): 70** percent

Sequence: SQIMYNYPA [Rv0288_2–10wt]
- O-rate A*02:01 (t1/2) [24]: 4.9* h
- O-rate A*30:02 (t1/2) [1]: 0.3 h
- Aff A*02:01 (ED50) [6]: 4E-07* M
- Aff A*30:02 (ED50) [2]: 2 µM
- Bind A*30:02 ([3]; […]): 46** percent
- Bind A*02:01 ([8]; […]): 78* percent

Sequence: MLGHAGDMA [Rv0288_11–19wt]
- O-rate A*02:01 (t1/2) ([24]; wild-type epitopes marked *): 1.4 h
- Aff A*02:01 (ED50) ([6]; wild-type epitopes marked *): 7e-07 M
- Bind A*02:01 ([8]; wild-type epitopes marked *): 67* percent

Sequence: HAMSSTHEA [Rv0288_70–78]
- Bind B*58:01 [4]: 16%
- O-rate A*02:01 (t1/2) [24]: 2.5 h
- Bind A*68:01 [13]: 77%
- O-rate A*30:02 (t1/2) [1]: 0.6 h
- O-rate A*68:01 (t1/2) [25]: 0.5 h
- Aff A*68:01 (ED50) [26]: 6 µM
- Aff A*02:01 (ED50) [6]: 6e-06 M
- Aff A*30:02 (ED50) [2]: 0.3 µM
- Bind A*30:02 ([3]; […]): 88** percent
- Bind C*07:01 [21]: 6%
- Bind A*02:01 ([8]; […]): 43* percent
